Like-named read-outs stand apart in the source and are kept apart here.
Key:
[1] = biological target: T1, hGPR55 (Homo sapiens, UniProt Q9Y2T6); test: [3H]CP55,940 radioligand displacement assay on hGPR55 CHO cell membranes; type: binding
T1 construct: host or cells: CHO-K1
Experimental: (§1) Assays were performed as described previously and summarized here. […] Binding was initiated by the addition of transfected hGPR55, hCB1R or hCB2R CHO cell membranes (25 μg protein per well). All assays were performed at 37°C for 120 min prior to quenching with ice-cold Tris binding buffer followed by vacuum filtration using a 24-well sampling manifold (Brandel Cell Harvester; Brandel, Inc., Gaithersburg, MD, USA) and Brandel GF/B filters. Each reaction well was washed six times with 1.2 mL aliquots of Tris-binding buffer. The filters were air-dried overnight and then placed in 5 mL of scintillation fluid (Ultima Gold XR, Perkin Elmer, Inc., Waltham, MA, USA). Liquid scintillation spectrometry was used for quantifying radioactivity.
(§2) Data for p-ERK in-cell westerns are shown as fold over vehicle response (i.e., 1). Estimates of Ki, EC50 and Emax were determined using non-linear regression (3 parameters) (GraphPad, Prism, v. 9.0). p < 0.05 was determined to be significant.

[2] = biological target: T2, human CB1R (Homo sapiens, UniProt P21554); test: [3H]CP55,940 radioligand displacement assay on hCB1R CHO cell membranes; type: binding
T2 construct: HitHunter) 95-0071C2; host or cells: CHO-K1
Experimental: as §1, §2

[3] = biological target: T3, human CB2R (Homo sapiens, UniProt P34972); test: [3H]CP55,940 radioligand displacement assay on hCB2R CHO cell membranes; type: binding
T3 construct: host or cells: CHO-K1
Experimental: as §1, §2

[4] = biological target: T1, hGPR55; test: p-ERK1/2 activation, in-cell Western, CHO cells expressing hGPR55; type: cell-based; conditions: for Emax, p-ERK1/2 activation: fold over vehicle, CHO cells expressing hGPR55, 30 min, mean ± SEM
Experimental: Downstream signaling by hGPR55 was investigated by quantifying p-ERK activation in the in-cell Western assay.
Cells were seeded at approximately 2000 cells/well in 96-well plates and treated with 0.1–10 μM compounds for 30 min and were then fixed for 10 min at room temperature with 4% paraformaldehyde. Cells were washed 3 times with 100 μL 1X PBS for 5 min each. Cells were incubated with blocking solution (PBS, 20% Odyssey blocking buffer, and 0.1% TritonX-100) for 1 h at room temperature. Next, cells were exposed to primary antibodies for p-ERK1/2(T202/Y204) (mouse monoclonal IgG, Cat# sc-136521) or ERK1/2 (rabbit polyclonal IgG, Cat# sc-292838) (Santa Cruz Biotechnology, Santa Cruz, CA) diluted (1:200) in blocking solution overnight at 4 °C. Cells were washed 3 times with 100 μL PBS for 5 min each. Cells were exposed to the secondary antibodies goat polyclonal anti-rabbit IgG IR^Dye800-conjugated antibody diluted 1:500 (Li-Cor Biosciences, IgG, Cat# P/S 926-32210, RRID AB-2687825, lot# C50113-18) and goat polyclonal anti-mouse IgG IR^Dye680-conjugated antibody diluted 1:500 (Li-Cor Biosciences, IgG, Cat# P/N 925-68070, RRID AB-2651128, lot# C50113-17) for 1 h at room temperature. Cells were washed 3 times with 100 μL PBS for 5 min each. Analyses were conducted using the Odyssey Imaging system and software (version 3.0; Li-Cor).
as §2

[5] = CHO cells expressing hGPR55, 30 min treatment, mean (95% CI), n = 6, read-out: EC50 95% CI, p-ERK1/2 activation

T3 sequence (P34972 whole entry): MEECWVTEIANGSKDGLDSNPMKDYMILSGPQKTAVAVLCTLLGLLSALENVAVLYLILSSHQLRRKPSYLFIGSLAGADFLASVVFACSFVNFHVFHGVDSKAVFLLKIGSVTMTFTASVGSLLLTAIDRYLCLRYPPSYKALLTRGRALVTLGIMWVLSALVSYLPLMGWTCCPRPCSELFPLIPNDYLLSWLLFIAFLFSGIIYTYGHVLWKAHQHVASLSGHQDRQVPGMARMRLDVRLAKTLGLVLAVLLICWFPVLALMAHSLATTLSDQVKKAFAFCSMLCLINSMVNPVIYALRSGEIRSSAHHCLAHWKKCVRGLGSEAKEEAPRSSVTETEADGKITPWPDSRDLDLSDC
T1 sequence (Q9Y2T6 whole entry): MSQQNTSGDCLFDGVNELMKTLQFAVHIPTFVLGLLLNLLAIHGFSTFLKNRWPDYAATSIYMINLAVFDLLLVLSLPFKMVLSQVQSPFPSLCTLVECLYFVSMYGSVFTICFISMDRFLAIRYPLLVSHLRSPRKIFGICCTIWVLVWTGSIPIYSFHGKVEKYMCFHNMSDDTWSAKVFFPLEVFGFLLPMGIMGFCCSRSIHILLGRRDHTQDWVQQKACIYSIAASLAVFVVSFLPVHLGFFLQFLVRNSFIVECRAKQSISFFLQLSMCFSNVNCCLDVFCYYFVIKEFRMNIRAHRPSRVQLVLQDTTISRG
T2 sequence (P21554 whole entry): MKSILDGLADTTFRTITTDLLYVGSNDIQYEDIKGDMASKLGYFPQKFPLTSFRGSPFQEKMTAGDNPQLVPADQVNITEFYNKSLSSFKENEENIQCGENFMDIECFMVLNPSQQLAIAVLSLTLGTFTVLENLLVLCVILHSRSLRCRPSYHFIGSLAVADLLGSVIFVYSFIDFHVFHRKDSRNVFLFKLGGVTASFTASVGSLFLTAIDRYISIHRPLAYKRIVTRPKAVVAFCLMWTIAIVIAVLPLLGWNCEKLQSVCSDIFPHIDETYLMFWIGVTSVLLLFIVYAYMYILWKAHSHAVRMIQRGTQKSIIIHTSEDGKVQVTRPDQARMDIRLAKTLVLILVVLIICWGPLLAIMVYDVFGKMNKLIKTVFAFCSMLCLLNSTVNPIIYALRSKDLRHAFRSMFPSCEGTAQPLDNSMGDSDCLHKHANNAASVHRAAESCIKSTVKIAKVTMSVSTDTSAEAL

SMILES | Ki ([1]; read-out: Ki hGPR55) | Ki [2] | Ki [3] | EC50 [4, 5] | Emax, p-ERK1/2 activation ([4]; n = 6) | melting point | Ki [1] | EC50 [4]
CCCCc1cc(O)c2cc(Cc3ccccc3O)c(=O)[nH]c2c1 [Compound 3, 7-n-Butyl-5-hydroxy-3-(2-hydroxybenzyl)quinolin-2(1H)-one] | 6.2 nM | 5.1 nM | > 10000 nM | 1.4 nM | 1.2 ± 0.04 Fold | 252 to 254 °C |  | 
CCCCCCC(C)(C)c1ccc([C@@H]2C[C@H](O)CC[C@H]2CCCO)c(O)c1 [CP55,940, reference compound] |  |  |  |  |  |  | 13 nM | 4.2 nM
CCCCc1cc(OC)c2cc(Cc3ccccc3OC)c(=O)[nH]c2c1 [Compound 1, 7-n-Butyl-5-methoxy-3-(2-methoxybenzyl)quinolin-2(1H)-one] | 14 nM | > 10000 nM | > 10000 nM | 6.4 nM | 1.5 ± 0.06 Fold | 208 to 210 °C |  | 
C=C(C)[C@@H]1CCC(C)=C[C@H]1c1c(C)cc(O)cc1O [Compound O-1602, O-1602, reference compound] | 10 nM |  |  | 61 nM | 1.3 ± 0.03 Fold |  |  | 
CCCCc1cc(OC)c2cc(Cc3ccccc3OC)c(=O)n(C)c2c1 [Compound 2, 7-n-Butyl-5-methoxy-3-(2-methoxybenzyl)-1-methylquinolin-2(1H)-one] | 1.2 nM | > 10000 nM | 6.9 nM | 1.1 nM | 1.4 ± 0.07 Fold | 78 to 80 °C |  | 
CCCCc1cc(O)c2cc(Cc3ccccc3O)c(=O)n(C)c2c1 [Compound 4, 7-n-Butyl-5-hydroxy-3-(2-hydroxybenzyl)-1-methylquinolin-2(1H)-one] | 7.1 nM | 29 nM | 7.9 nM | 11 nM | 1.3 ± 0.03 Fold | 223 to 225 °C |  | 

Reference: article PMC9320067, “Novel Potent and Selective Agonists of the GPR55 Receptor Based on the 3-Benzylquinolin-2(1H)-One Scaffold” (Pharmaceuticals, 2022)
